# According to ChEMBL document CHEMBL1240460, “Design, synthesis and antifungal activity of isosteric analogues of benzoheterocyclic N-myristoyltransferase inhibitors” (2010):
# Tests used:
# Format in all cases: functional
# Candida albicans = experiment: Antifungal activity against Candida albicans by serial dilution method
# Candida parapsilosis = experiment: Antifungal activity against Candida parapsilosis by serial dilution method; settings: Lodderomyces parapsilosis
# Candida tropicalis = experiment: Antifungal activity against Candida tropicalis by serial dilution method
# Cryptococcus neoformans = experiment: Antifungal activity against Cryptococcus neoformans by serial dilution method
# Aspergillus fumigatus = experiment: Antifungal activity against Aspergillus fumigatus by serial dilution method
# Nannizzia gypsea = experiment: Antifungal activity against Microsporum gypseum by serial dilution method
# Trichophyton rubrum = experiment: Antifungal activity against Trichophyton rubrum by serial dilution method
Structure (SMILES),MIC80 (Candida albicans),MIC80 (Candida parapsilosis),MIC80 (Candida tropicalis),MIC80 (Cryptococcus neoformans),MIC80 (Aspergillus fumigatus),MIC80 (Nannizzia gypsea),MIC80 (Trichophyton rubrum)
Cc1c(COc2ccc(F)c(F)c2F)oc2cccc(OCCCNCc3cccnc3)c12,0.125 µg/mL,0.0625 µg/mL,0.125 µg/mL,0.5 µg/mL,16 µg/mL,2 µg/mL,1 µg/mL
Fc1cc(F)c(OCc2nc3c(OCCCNCc4cccnc4)cccc3o2)c(F)c1,16 µg/mL,1 µg/mL,1 µg/mL,16 µg/mL,64 µg/mL,,
Fc1ccc(OCc2cc3c(OCCCNCc4cccnc4)cccc3[nH]2)c(F)c1,> 128 µg/mL,,,64 µg/mL,> 128 µg/mL,8 µg/mL,32 µg/mL
O=C(Nc1ccccc1)c1cc2c(OCCCNCc3cccnc3)cccc2[nH]1,> 128 µg/mL,,,> 128 µg/mL,> 128 µg/mL,32 µg/mL,64 µg/mL
c1ccc(OCc2nc3c(OCCCNCc4cccnc4)cccc3o2)cc1,16 µg/mL,1 µg/mL,0.25 µg/mL,64 µg/mL,> 64 µg/mL,,
Fc1ccc(OCc2nc3c(OCCCNCc4cccnc4)cccc3o2)c(F)c1,1 µg/mL,0.25 µg/mL,1 µg/mL,16 µg/mL,> 64 µg/mL,,
c1ccc(SCc2cc3c(OCCCNCc4cccnc4)cccc3[nH]2)cc1,128 µg/mL,,,64 µg/mL,> 128 µg/mL,8 µg/mL,64 µg/mL
OC(Cn1cncn1)(Cn1cncn1)c1ccc(F)cc1F [FLUCONAZOLE],0.25 µg/mL,4 µg/mL,4 µg/mL,1 µg/mL,> 64 µg/mL,16 µg/mL,1 µg/mL
O=C(Nc1ccc(F)c(F)c1)c1cc2c(OCCCNCc3cccnc3)cccc2[nH]1,> 128 µg/mL,,,128 µg/mL,> 128 µg/mL,16 µg/mL,32 µg/mL
CCOC(=O)c1oc2cccc(OCCCNCc3cccnc3)c2c1C,1 µg/mL,4 µg/mL,1 µg/mL,64 µg/mL,> 64 µg/mL,4 µg/mL,4 µg/mL
Fc1ccccc1OCc1nc2c(OCCCNCc3cccnc3)cccc2o1,4 µg/mL,1 µg/mL,0.0625 µg/mL,16 µg/mL,> 64 µg/mL,,
CCOC(=O)c1cc2c(OCCCNCc3cccnc3)cccc2[nH]1,> 128 µg/mL,,,> 128 µg/mL,> 128 µg/mL,32 µg/mL,64 µg/mL
Fc1ccc(OCc2nc3c(OCCCNCc4cccnc4)cccc3o2)c(F)c1F,0.25 µg/mL,0.25 µg/mL,0.25 µg/mL,64 µg/mL,> 64 µg/mL,,
Fc1cccc(F)c1OCc1nc2c(OCCCNCc3cccnc3)cccc2o1,64 µg/mL,4 µg/mL,1 µg/mL,64 µg/mL,> 64 µg/mL,,
O=C(Nc1ccccc1Cl)c1cc2c(OCCCNCc3cccnc3)cccc2[nH]1,> 128 µg/mL,,,> 128 µg/mL,> 128 µg/mL,2 µg/mL,128 µg/mL
Fc1ccc(OCc2cc3c(OCCCNCc4cccnc4)cccc3[nH]2)cc1,> 128 µg/mL,,,128 µg/mL,> 128 µg/mL,32 µg/mL,128 µg/mL
O=[N+]([O-])c1cccc(OCc2nc3c(OCCCNCc4cccnc4)cccc3o2)c1,> 64 µg/mL,4 µg/mL,0.25 µg/mL,> 64 µg/mL,> 64 µg/mL,,
O=C(Nc1cccc(F)c1)c1cc2c(OCCCNCc3cccnc3)cccc2[nH]1,128 µg/mL,,,128 µg/mL,> 128 µg/mL,32 µg/mL,64 µg/mL
Fc1ccc(OCc2nc3c(OCCCNCc4cccnc4)cccc3o2)cc1,16 µg/mL,1 µg/mL,1 µg/mL,16 µg/mL,> 64 µg/mL,,
O=C(Nc1ccc(Cl)cc1)c1cc2c(OCCCNCc3cccnc3)cccc2[nH]1,> 128 µg/mL,,,> 128 µg/mL,> 128 µg/mL,32 µg/mL,128 µg/mL
Clc1cccc(Cl)c1SCc1cc2c(OCCCNCc3cccnc3)cccc2[nH]1,64 µg/mL,,,64 µg/mL,> 128 µg/mL,4 µg/mL,16 µg/mL
